# Marks after values point to notes of the source that are not given here.
# Experiment: Biodistribution of radioactivity in rat tissues after intravenous injection
# Type: in vivo
# Conditions: for Radioactivity in Entorhinal cortex / Radioactivity in Fat / Radioactivity in Heart (ventricle) / Radioactivity in Hippocampus / Radioactivity in Hypothalamus / Radioactivity in Inferior collicull / Radioactivity in Kidney / Radioactivity in Large intestine / Radioactivity in Lge. intestine content / Radioactivity in Liver / Radioactivity in Lung / Radioactivity in Medulla with Pons / Radioactivity in Olfactory bulbs / Radioactivity in Olfactory tubercles / Radioactivity in Prefrontal cortex / Radioactivity in Skeletal muscle / Radioactivity in Skin / Radioactivity in Sm. intestine content / Radioactivity in Small intestine / Radioactivity in Somatosensory cortex / Radioactivity in Spleen / Radioactivity in Stomach / Radioactivity in Striata / Radioactivity in Superior collicull / Radioactivity in Testis / Radioactivity in Thalamus / Radioactivity in Urine / Radioactivity in Visual cortex / Radioactivity in Plasma / Radioactivity in Whole blood / Radioactivity in Cerebellum: i.v.; for Radioactivity in Plasma / Radioactivity in Whole blood: composite curve of 9 rats
# Description: Sixteen adult male Sprague-Dawley rats (body weight 250-320 g: mean±SD=288±25 g) were used in 5 separate experiments. Each rat was injected with ˜13 MBq Compound 1, at a specific activity of […], via a previously catheterised tail vein. The associated stable compound was 0.5±0.2 nmol/kg. Discrete samples of arterial blood were collected from 9 of the rats via a previously catheterised tail artery.
# Tissues were sampled post-mortem using an established protocol, as described in Hirani et al, Synapse 42:164-176 (2001). The radioactivity concentration data obtained at 12 times up to 90 min after radioligand injection were normalised for both amount injected and body weight, giving:—‘uptake units’=(cpm/g tissue)/(injected cpm/g body weight).
# [1] = period 5 to 90 min after intravenous injection
structure (smiles),measurement,setting,value
"CSc1cccc(N([11CH3])C(=N)Nc2cc(SC)ccc2Cl)c1 [Compound 1, (N-(2-chloro-5-(methylthio)phenyl)-N′-(3-methylthio)phenyl)-N′-[N-methyl-^11C]-methylguanidine]",Radioactivity in Entorhinal cortex,30 min,1.31 Uptake Units
same,Radioactivity in Fat,30 min,0.71 Uptake Units
same,Radioactivity in Heart (ventricle),30 min,0.99 Uptake Units
same,Radioactivity in Hippocampus,30 min,1.32 Uptake Units
same,Radioactivity in Hypothalamus,30 min,1.22 Uptake Units
same,Radioactivity in Inferior collicull,30 min,1.16 Uptake Units
same,Radioactivity in Kidney,30 min,2.85 Uptake Units
same,Radioactivity in Large intestine,30 min,1.11 Uptake Units
same,Radioactivity in Lge. intestine content,30 min,0.36 Uptake Units
same,Radioactivity in Liver,30 min,7.84 Uptake Units
same,Radioactivity in Lung,30 min,7.48 Uptake Units
same,Radioactivity in Medulla with Pons,30 min,1.26 Uptake Units
same,Radioactivity in Olfactory bulbs,30 min,1.10 Uptake Units
same,Radioactivity in Olfactory tubercles,30 min,1.24 Uptake Units
same,Radioactivity in Prefrontal cortex,30 min,1.51 Uptake Units
same,Radioactivity in Skeletal muscle,30 min,0.68 Uptake Units
same,Radioactivity in Skin,30 min,0.75 Uptake Units
same,Radioactivity in Sm. intestine content,30 min,7.14 Uptake Units
same,Radioactivity in Small intestine,30 min,2.30 Uptake Units
same,Radioactivity in Somatosensory cortex,30 min,1.37 Uptake Units
same,Radioactivity in Spleen,30 min,4.75 Uptake Units
same,Radioactivity in Stomach,30 min,1.07 Uptake Units
same,Radioactivity in Striata,30 min,1.32 Uptake Units
same,Radioactivity in Superior collicull,30 min,1.19 Uptake Units
same,Radioactivity in Testis,30 min,0.76 Uptake Units
same,Radioactivity in Thalamus,30 min,1.43 Uptake Units
same,Radioactivity in Urine,30 min,37.5 Uptake Units
same,Radioactivity in Visual cortex,30 min,1.55 Uptake Units
same,Radioactivity in Plasma,30 min,0.18 Uptake Units
same,Radioactivity in Whole blood,30 min,0.19 Uptake Units
same,Radioactivity in Cerebellum,40 min,0.62 Uptake Units
same,Radioactivity in Entorhinal cortex,40 min,0.85 Uptake Units
same,Radioactivity in Fat,40 min,0.45 Uptake Units
same,Radioactivity in Heart (ventricle),40 min,0.63 Uptake Units
same,Radioactivity in Hippocampus,40 min,0.86 Uptake Units
same,Radioactivity in Hypothalamus,40 min,0.76 Uptake Units
same,Radioactivity in Inferior collicull,40 min,0.64 Uptake Units
same,Radioactivity in Kidney,40 min,1.79 Uptake Units
same,Radioactivity in Large intestine,40 min,0.66 Uptake Units
same,Radioactivity in Lge. intestine content,40 min,0.23 Uptake Units
same,Radioactivity in Liver,40 min,5.76 Uptake Units
same,Radioactivity in Lung,40 min,3.99 Uptake Units
same,Radioactivity in Medulla with Pons,40 min,0.80 Uptake Units
same,Radioactivity in Olfactory bulbs,40 min,0.64 Uptake Units
same,Radioactivity in Olfactory tubercles,40 min,0.72 Uptake Units
same,Radioactivity in Prefrontal cortex,40 min,0.93 Uptake Units
same,Radioactivity in Skeletal muscle,40 min,0.61 Uptake Units
same,Radioactivity in Skin,40 min,0.39 Uptake Units
same,Radioactivity in Sm. intestine content,40 min,3.68 Uptake Units
same,Radioactivity in Small intestine,40 min,1.09 Uptake Units
same,Radioactivity in Somatosensory cortex,40 min,0.88 Uptake Units
same,Radioactivity in Spleen,40 min,2.83 Uptake Units
same,Radioactivity in Stomach,40 min,0.45 Uptake Units
same,Radioactivity in Striata,40 min,0.84 Uptake Units
same,Radioactivity in Superior collicull,40 min,0.65 Uptake Units
same,Radioactivity in Testis,40 min,0.74 Uptake Units
same,Radioactivity in Thalamus,40 min,0.92 Uptake Units
same,Radioactivity in Urine,40 min,27.5 Uptake Units
same,Radioactivity in Visual cortex,40 min,0.89 Uptake Units
same,Radioactivity in Plasma,40 min,0.16 Uptake Units
same,Radioactivity in Whole blood,40 min,0.16 Uptake Units
same,Radioactivity in Cerebellum,50 min,0.55 Uptake Units
same,Radioactivity in Entorhinal cortex,50 min,0.75 Uptake Units
same,Radioactivity in Fat,50 min,0.49 Uptake Units
same,Radioactivity in Heart (ventricle),50 min,0.50 Uptake Units
same,Radioactivity in Hippocampus,50 min,0.73 Uptake Units
same,Radioactivity in Hypothalamus,50 min,0.61 Uptake Units
same,Radioactivity in Inferior collicull,50 min,0.56 Uptake Units
same,Radioactivity in Kidney,50 min,1.68 Uptake Units
same,Radioactivity in Large intestine,50 min,0.76 Uptake Units
same,Radioactivity in Lge. intestine content,50 min,0.35 Uptake Units
same,Radioactivity in Liver,50 min,5.01 Uptake Units
same,Radioactivity in Lung,50 min,5.30 Uptake Units
same,Radioactivity in Medulla with Pons,50 min,0.70 Uptake Units
same,Radioactivity in Olfactory bulbs,50 min,0.58 Uptake Units
same,Radioactivity in Olfactory tubercles,50 min,0.65 Uptake Units
same,Radioactivity in Prefrontal cortex,50 min,0.80 Uptake Units
same,Radioactivity in Skeletal muscle,50 min,0.61 Uptake Units
same,Radioactivity in Skin,50 min,0.52 Uptake Units
same,Radioactivity in Sm. intestine content,50 min,4.03 Uptake Units
same,Radioactivity in Small intestine,50 min,1.19 Uptake Units
same,Radioactivity in Somatosensory cortex,50 min,0.71 Uptake Units
same,Radioactivity in Spleen,50 min,2.95 Uptake Units
same,Radioactivity in Stomach,50 min,0.32 Uptake Units
same,Radioactivity in Striata,50 min,0.69 Uptake Units
same,Radioactivity in Superior collicull,50 min,0.57 Uptake Units
same,Radioactivity in Testis,50 min,0.69 Uptake Units
same,Radioactivity in Thalamus,50 min,0.85 Uptake Units
same,Radioactivity in Urine,50 min,84.5 Uptake Units
same,Radioactivity in Visual cortex,50 min,0.72 Uptake Units
same,Radioactivity in Plasma,50 min,0.17 Uptake Units
same,Radioactivity in Whole blood,50 min,0.16 Uptake Units
same,Radioactivity in Cerebellum,60 min,0.54* Uptake Units
same,Radioactivity in Entorhinal cortex,60 min,0.73* Uptake Units
same,Radioactivity in Fat,60 min,0.79* Uptake Units
same,Radioactivity in Heart (ventricle),60 min,0.59* Uptake Units
same,Radioactivity in Hippocampus,60 min,0.76* Uptake Units
same,Radioactivity in Hypothalamus,60 min,0.65* Uptake Units
same,Radioactivity in Inferior collicull,60 min,0.54* Uptake Units
same,Radioactivity in Kidney,60 min,1.87* Uptake Units
same,Radioactivity in Large intestine,60 min,1.03* Uptake Units
same,Radioactivity in Lge. intestine content,60 min,0.44* Uptake Units
same,Radioactivity in Liver,60 min,5.73* Uptake Units
same,Radioactivity in Lung,60 min,4.10* Uptake Units
same,Radioactivity in Medulla with Pons,60 min,0.67* Uptake Units
same,Radioactivity in Olfactory bulbs,60 min,0.55* Uptake Units
same,Radioactivity in Olfactory tubercles,60 min,0.65* Uptake Units
same,Radioactivity in Prefrontal cortex,60 min,0.77* Uptake Units
same,Radioactivity in Skeletal muscle,60 min,0.49* Uptake Units
same,Radioactivity in Skin,60 min,0.46* Uptake Units
same,Radioactivity in Sm. intestine content,60 min,6.08* Uptake Units
same,Radioactivity in Small intestine,60 min,1.29* Uptake Units
same,Radioactivity in Somatosensory cortex,60 min,0.68* Uptake Units
same,Radioactivity in Spleen,60 min,2.98* Uptake Units
same,Radioactivity in Stomach,60 min,0.66* Uptake Units
same,Radioactivity in Striata,60 min,0.67* Uptake Units
same,Radioactivity in Superior collicull,60 min,0.54* Uptake Units
same,Radioactivity in Testis,60 min,0.89* Uptake Units
same,Radioactivity in Thalamus,60 min,0.74* Uptake Units
same,Radioactivity in Urine,60 min,24.4* Uptake Units
same,Radioactivity in Visual cortex,60 min,0.73* Uptake Units
same,Radioactivity in Plasma,60 min,0.18 Uptake Units
same,Radioactivity in Whole blood,60 min,0.17 Uptake Units
same,Radioactivity in Cerebellum,70 min,0.38* Uptake Units
same,Radioactivity in Entorhinal cortex,70 min,0.41 Uptake Units
same,Radioactivity in Fat,70 min,0.55* Uptake Units
same,Radioactivity in Heart (ventricle),70 min,0.52* Uptake Units
same,Radioactivity in Hippocampus,70 min,0.54* Uptake Units
same,Radioactivity in Hypothalamus,70 min,0.33 Uptake Units
same,Radioactivity in Inferior collicull,70 min,0.39 Uptake Units
same,Radioactivity in Kidney,70 min,1.88* Uptake Units
same,Radioactivity in Large intestine,70 min,0.76* Uptake Units
same,Radioactivity in Lge. intestine content,70 min,0.57* Uptake Units
same,Radioactivity in Liver,70 min,6.02* Uptake Units
same,Radioactivity in Lung,70 min,4.62* Uptake Units
same,Radioactivity in Medulla with Pons,70 min,0.39 Uptake Units
same,Radioactivity in Olfactory bulbs,70 min,0.31 Uptake Units
same,Radioactivity in Olfactory tubercles,70 min,0.36 Uptake Units
same,Radioactivity in Prefrontal cortex,70 min,0.52* Uptake Units
same,Radioactivity in Skeletal muscle,70 min,0.44* Uptake Units
same,Radioactivity in Skin,70 min,0.47* Uptake Units
same,Radioactivity in Sm. intestine content,70 min,5.41* Uptake Units
same,Radioactivity in Small intestine,70 min,1.34* Uptake Units
same,Radioactivity in Somatosensory cortex,70 min,0.38 Uptake Units
same,Radioactivity in Spleen,70 min,2.97* Uptake Units
same,Radioactivity in Stomach,70 min,0.96 Uptake Units
same,Radioactivity in Striata,70 min,0.46* Uptake Units
same,Radioactivity in Superior collicull,70 min,0.28 Uptake Units
same,Radioactivity in Testis,70 min,0.74* Uptake Units
same,Radioactivity in Thalamus,70 min,0.40 Uptake Units
same,Radioactivity in Urine,70 min,16.9* Uptake Units
same,Radioactivity in Visual cortex,70 min,0.38 Uptake Units
same,Radioactivity in Plasma,70 min,0.20 Uptake Units
same,Radioactivity in Whole blood,70 min,0.18 Uptake Units
same,Radioactivity in Cerebellum,90 min,0.32* Uptake Units
same,Radioactivity in Entorhinal cortex,90 min,0.38* Uptake Units
same,Radioactivity in Fat,90 min,0.51* Uptake Units
same,Radioactivity in Heart (ventricle),90 min,0.40* Uptake Units
same,Radioactivity in Hippocampus,90 min,0.46* Uptake Units
same,Radioactivity in Hypothalamus,90 min,0.35* Uptake Units
same,Radioactivity in Inferior collicull,90 min,0.36 Uptake Units
same,Radioactivity in Kidney,90 min,1.50* Uptake Units
same,Radioactivity in Large intestine,90 min,0.61* Uptake Units
same,Radioactivity in Lge. intestine content,90 min,0.66* Uptake Units
same,Radioactivity in Liver,90 min,3.85* Uptake Units
same,Radioactivity in Lung,90 min,2.62* Uptake Units
same,Radioactivity in Medulla with Pons,90 min,0.39* Uptake Units
same,Radioactivity in Olfactory bulbs,90 min,0.28* Uptake Units
same,Radioactivity in Olfactory tubercles,90 min,0.36* Uptake Units
same,Radioactivity in Prefrontal cortex,90 min,0.45* Uptake Units
same,Radioactivity in Skeletal muscle,90 min,0.35* Uptake Units
same,Radioactivity in Skin,90 min,0.40* Uptake Units
same,Radioactivity in Sm. intestine content,90 min,3.66* Uptake Units
same,Radioactivity in Small intestine,90 min,0.93* Uptake Units
same,Radioactivity in Somatosensory cortex,90 min,0.43* Uptake Units
same,Radioactivity in Spleen,90 min,2.07* Uptake Units
same,Radioactivity in Stomach,90 min,0.34* Uptake Units
same,Radioactivity in Striata,90 min,0.41* Uptake Units
same,Radioactivity in Superior collicull,90 min,0.23 Uptake Units
same,Radioactivity in Testis,90 min,0.79* Uptake Units
same,Radioactivity in Thalamus,90 min,0.42* Uptake Units
same,Radioactivity in Urine,90 min,46.4* Uptake Units
same,Radioactivity in Visual cortex,90 min,0.44* Uptake Units
same,Radioactivity in Plasma,90 min,0.21 Uptake Units
same,Radioactivity in Whole blood,90 min,0.18 Uptake Units
same,radioactivity level in plasma,[1],~0.2 uptake units
same,radioactivity level in whole blood,[1],~0.2 uptake units
